In PMC12505902, “Inhibitors of trehalose-6-phosphate synthase activity in fungal pathogens compromise thermal tolerance pathways” (mBio, 2025):

System: trehalose content of wild-type C. albicans
Assay: Trehalose measurement (colorimetric glucose assay after trehalase)
Format: cell-based
Conditions: 0.5 mM 4456dh
Protocol: Given that 4456dh inhibits the activity of CaTps1 and CnTps1 in vitro and has bioactivity against multiple Candida and Cryptococcus species, we tested whether 4456dh affects trehalose production in cells. We quantified trehalose levels in cells treated with 4456dh at sub-lethal concentrations as determined by the MIC assays using a colorimetric spectrophotometric assay. We measured trehalose production in wild-type C. albicans at 30°C and 42°C, in the presence and absence of 4456dh. […] However, we observed a significant increase in trehalose content when C. albicans was exposed to high temperature stress (P < 0.0001; Fig. 5A).
Fig 5 4456dh treatment results in reduced trehalose accumulation and a decrease in Tps1-dependent virulence factors. […] Trehalose was measured using a colorimetric glucose assay after treatment of cultures with trehalase. […] Cells were harvested, stained in India Ink, and analyzed using differential interference contrast imaging. […]
124 technical replicates. Growth, as determined by a reading of absorbance at 600 nm, was
125 normalized to untreated controls and was corrected for the absorbance of 4456dh in the YPD […]
129 overnight cultures was quantified by measuring the OD600 and corrected for the background
130 absorbance of the medium. Antifungal potency for 4456dh was assessed by minimum inhibitory […]

Cn1cc(-c2csc(NC(=O)Cc3ccccn3)n2)cn1 [Compound 4456dh]
change in trehalose content (30°C): no significant change detected | change in trehalose content (42°C): approximate twofold decrease
